Measured values as given in ChEMBL document CHEMBL4359905, “Discovery, structural insight, and bioactivities of BY27 as a selective inhibitor of the second bromodomains of BET proteins” (Eur J Med Chem, 2019).

Assays:
[1] = target: T1, Bromodomain-containing protein 4 (Homo sapiens, UniProt O60885); assay: Binding affinity to human recombinant BRD4 BD2 (333 to 460 residues) by fluorescence polarization assay
MV4-11 = assay: Antiproliferative activity against human MV4-11 cells assessed as cell growth inhibition after 4 days by CCK8 assay; assay type: functional, cell-based; settings: MV4-11, 96 h
MM1.S = assay: Antiproliferative activity against human MM1S cells assessed as cell growth inhibition after 4 days by CCK8 assay; assay type: functional, cell-based; settings: 96 h
[2] = target: T1, Bromodomain-containing protein 4; assay: Binding affinity to human recombinant BRD4 BD1 (44 to 168 residues) by fluorescence polarization assay
[3] = target: T2, Bromodomain-containing protein 3 (Homo sapiens, UniProt Q15059); assay: Binding affinity to human recombinant BRD3 BD2 (306 to 417 residues) by fluorescence polarization assay
Target sequence in this assay (Q15059 whole entry, the tested form may be a part): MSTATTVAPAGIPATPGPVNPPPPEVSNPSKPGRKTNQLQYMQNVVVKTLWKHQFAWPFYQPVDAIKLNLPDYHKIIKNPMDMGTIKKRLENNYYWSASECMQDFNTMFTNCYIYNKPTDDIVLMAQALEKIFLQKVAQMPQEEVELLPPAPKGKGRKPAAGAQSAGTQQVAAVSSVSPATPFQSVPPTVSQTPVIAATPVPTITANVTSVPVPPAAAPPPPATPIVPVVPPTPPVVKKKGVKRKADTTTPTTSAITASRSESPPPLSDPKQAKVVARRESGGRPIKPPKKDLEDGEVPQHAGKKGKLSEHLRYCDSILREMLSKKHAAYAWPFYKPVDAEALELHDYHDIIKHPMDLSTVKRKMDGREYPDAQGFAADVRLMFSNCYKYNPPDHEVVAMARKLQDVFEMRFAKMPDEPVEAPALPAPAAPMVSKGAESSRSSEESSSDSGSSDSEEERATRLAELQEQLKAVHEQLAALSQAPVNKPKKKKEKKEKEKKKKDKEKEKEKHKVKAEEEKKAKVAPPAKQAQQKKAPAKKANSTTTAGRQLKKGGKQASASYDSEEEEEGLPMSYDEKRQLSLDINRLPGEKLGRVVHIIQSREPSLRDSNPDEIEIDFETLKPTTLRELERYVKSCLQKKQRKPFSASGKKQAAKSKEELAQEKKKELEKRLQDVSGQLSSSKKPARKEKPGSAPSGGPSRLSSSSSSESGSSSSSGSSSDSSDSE

[4] = target: T3, Bromodomain-containing protein 2 (Homo sapiens, UniProt P25440); assay: Binding affinity to human recombinant BRD2 BD1 (72 to 205 residues) by fluorescence polarization assay
T3 sequence (P25440 whole entry, the tested form may be a part): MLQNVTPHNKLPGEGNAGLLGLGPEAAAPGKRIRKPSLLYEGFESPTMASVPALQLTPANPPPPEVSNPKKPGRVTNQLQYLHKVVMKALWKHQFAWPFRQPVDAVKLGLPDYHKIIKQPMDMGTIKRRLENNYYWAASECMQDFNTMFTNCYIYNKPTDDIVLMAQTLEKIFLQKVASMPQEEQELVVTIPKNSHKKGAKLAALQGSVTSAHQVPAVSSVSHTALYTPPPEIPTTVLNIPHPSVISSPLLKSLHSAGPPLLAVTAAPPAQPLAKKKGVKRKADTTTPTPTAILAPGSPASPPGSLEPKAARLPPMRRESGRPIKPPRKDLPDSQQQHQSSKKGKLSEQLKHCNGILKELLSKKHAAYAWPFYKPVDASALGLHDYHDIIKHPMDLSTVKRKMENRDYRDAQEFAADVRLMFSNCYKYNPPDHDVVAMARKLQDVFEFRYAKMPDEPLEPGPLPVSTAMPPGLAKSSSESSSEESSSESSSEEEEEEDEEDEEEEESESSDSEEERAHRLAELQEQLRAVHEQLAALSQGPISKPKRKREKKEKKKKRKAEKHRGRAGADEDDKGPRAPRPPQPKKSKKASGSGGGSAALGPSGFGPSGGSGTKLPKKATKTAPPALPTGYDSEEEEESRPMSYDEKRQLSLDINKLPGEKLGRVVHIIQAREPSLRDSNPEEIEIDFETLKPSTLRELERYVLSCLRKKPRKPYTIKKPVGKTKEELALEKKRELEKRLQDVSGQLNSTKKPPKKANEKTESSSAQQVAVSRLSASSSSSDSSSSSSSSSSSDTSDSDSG

[5] = target: T2, Bromodomain-containing protein 3; assay: Binding affinity to human recombinant BRD3 BD1 (24 to 144 residues) by fluorescence polarization assay
Target sequence in this assay (Q15059 whole entry, the tested form may be a part): as the sequence (Q15059 whole entry, the tested form may be a part) above

[6] = target: T2, Bromodomain-containing protein 3; assay: Selectivity index, ratio of Ki for human recombinant BRD3 BD1 (24 to 144 residues) to Ki for human recombinant BRD3 BD2 (306 to 417 residues)
Target sequence in this assay (Q15059 2-726 limits assumed): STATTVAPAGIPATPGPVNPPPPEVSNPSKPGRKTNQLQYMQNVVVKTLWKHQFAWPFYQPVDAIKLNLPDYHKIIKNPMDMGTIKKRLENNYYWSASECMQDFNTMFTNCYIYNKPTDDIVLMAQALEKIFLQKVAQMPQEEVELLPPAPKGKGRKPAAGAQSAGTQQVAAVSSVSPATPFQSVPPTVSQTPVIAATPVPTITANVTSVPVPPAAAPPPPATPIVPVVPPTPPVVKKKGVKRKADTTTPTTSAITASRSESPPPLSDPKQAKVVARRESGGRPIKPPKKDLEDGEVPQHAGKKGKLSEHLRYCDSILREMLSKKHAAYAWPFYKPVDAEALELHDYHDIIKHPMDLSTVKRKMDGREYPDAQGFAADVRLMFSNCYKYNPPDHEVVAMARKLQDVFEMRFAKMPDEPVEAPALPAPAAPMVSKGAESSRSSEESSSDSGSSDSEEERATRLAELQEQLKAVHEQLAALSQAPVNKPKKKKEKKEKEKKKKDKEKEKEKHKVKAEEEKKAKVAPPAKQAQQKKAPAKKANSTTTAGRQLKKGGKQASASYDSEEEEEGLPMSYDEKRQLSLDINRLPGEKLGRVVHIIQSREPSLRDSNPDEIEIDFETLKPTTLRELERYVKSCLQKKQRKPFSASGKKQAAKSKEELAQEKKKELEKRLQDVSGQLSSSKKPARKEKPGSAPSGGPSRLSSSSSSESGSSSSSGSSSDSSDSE

[7] = target: T3, Bromodomain-containing protein 2; assay: Binding affinity to human recombinant BRD2 BD2 (349 to 460 residues) by fluorescence polarization assay

| Ki [1] | IC50 (MV4-11) | IC50 (MM1.S) | Ki [2] | Ki [3] | Ki [4] | Ki [5] | Ratio Ki [6] | Ki [7] | Compound |
| --- | --- | --- | --- | --- | --- | --- | --- | --- | --- |
| 68.8 nM | 143 nM | 132 nM | 310 nM |  |  |  |  |  | Cc1nnc2n1-c1ccc(-c3ccc4c(c3)CCC(=O)N4)cc1C(Nc1ccc(Cl)cc1)CC2 (centres undefined) |
| 18 nM | 112 nM | 241 nM | 271 nM |  |  |  |  |  | Cc1nnc2n1-c1ccc(-c3ccc(CN4CCN(C)CC4)cc3)cc1C(Nc1ccc(Cl)cc1)CC2 (centres undefined) |
| 14.8 nM | 84.4 nM | 64.4 nM | 144 nM | 11.1 nM | 275 nM | 188 nM | 17 | 9.1 nM | Cc1nnc2n1-c1ccc(-c3cnn(C)c3)cc1C(Nc1ccc(Cl)cc1)CC2 (centres undefined) |
| 21.3 nM | 107 nM | 533 nM | 294 nM |  |  |  |  |  | Cc1nnc2n1-c1ccc(-c3cnn(C)c3)cc1C(Nc1cccc3ccccc13)CC2 (centres undefined) |
| 47.3 nM | 3260 nM | 7060 nM | 247 nM |  |  |  |  |  | Cc1nnc2n1-c1ccc(-c3ccc(C(=O)O)cc3)cc1C(Nc1ccc(Cl)cc1)CC2 (centres undefined) |

| Compound | Ki [1] | IC50 (MV4-11) | IC50 (MM1.S) | Ki [2] | Ki [3] | Ki [4] | Ki [5] | Ratio Ki [6] | Ki [7] |
| --- | --- | --- | --- | --- | --- | --- | --- | --- | --- |
| Cc1nnc2n1-c1ccc(C3=CCN(C)CC3)cc1C(Nc1ccc(Cl)cc1)CC2 (centres undefined) | 413 nM | 1780 nM | 3240 nM | 4320 nM |  |  |  |  |  |
